# Experimental data: article PMC6539868, “Syntheses and Biological Studies of Cu(II) Complexes Bearing Bis(pyrazol-1-yl)- and Bis(triazol-1-yl)-acetato Heteroscorpionate Ligands” (Molecules, 2019)
# Like-named read-outs stand apart in the source and are kept apart here.
# Legend:
# [1] = test system: HCT-15 colon cancer cell spheroids; test: Acid phosphatase (APH) assay in 3D spheroids; format: cell-based, human; conditions: 72 h, APH test, read-out: IC50 (µM) ± S.D. HCT-15 spheroids
# Experimental: Spheroid cultures were obtained by seeding 2.5 × 10^3 HCT-15 cells/well in round bottom non-tissue culture treated 96 well-plate (Greiner Bio-one, Kremsmünster, Austria) in phenol red free RPMI-1640 medium (Sigma Chemical Co.), containing 10% FCS and supplemented with 20% methyl cellulose stock solution.
# An APH modified assay was used for determining cell viability in 3D spheroids, as previously described. IC50 values were calculated with a four parameter logistic (4-PL) model. All the values are the means ± SD of not less than four independent experiments.
# The in vitro antitumor efficacy of the newly developed compounds was also tested on 3D colon cancer cell culture models. Differently from 2D monolayer culture, 3D spheroid cell culture systems comprise cancer cells in various cell growth stages. Consequently, the multicellular cancer spheroid model is recognized to better reflect the tumor mass in vivo regarding drug permeation, cell interactions, gene expression, hypoxia and nutrient gradients with respect to monolayer cell cultures. Table 4 summarizes the IC50 values obtained after treatment of 3D cell spheroids of human HCT-15 colon cancer cells with copper(II) compounds as well as with cisplatin, as reference drug. In accordance with 2D chemosensitivity assays, complex 3 was scarcely effective, whereas complex 1 was as effective as cisplatin. […] We hypothesize that in this non-proliferative and very resistant tumor model the higher lipophilicity of 1, due to the presence of methyl substituents on the pyrazolyl rings, might be responsible for the enhanced compound penetration in the core area of spheroids.
# [2] = test system: 2008; test: MTT cytotoxicity assay, 2D monolayer; format: cell-based, human; conditions: 72 h, MTT test, ovarian cancer, read-out: IC50 (µM) ± S.D. 2008
# From the text: (§1) Human lung (A549), colon (HCT-15 and LoVo) and breast (MCF-7) carcinoma cell lines were obtained from American Type Culture Collection (ATCC, Rockville, MD, USA). Human pancreatic BxPC3 carcinoma cells were obtained from European Collection of Cell Culture (ECACC, Salisbury, UK). Human ovarian 2008 cancer cells were kindly provided by Prof. G. Marverti (Dept. of Biomedical Science of Modena University, Modena, Italy). Human squamous cervical A431 carcinoma cells were kindly provided by Prof. F. Zunino (Division of Experimental Oncology B, Istituto Nazionale dei Tumori, Milan, Italy). The LoVo-OXP cells were obtained as previously described. Cell lines were maintained in culture in the logarithmic phase at 37 °C in a 5% carbon dioxide atmosphere using the following media added of 10% fetal calf serum (Euroclone, Milan, Italy), antibiotics (50 units/mL penicillin and 50 μg/mL streptomycin), and 2 mM L-glutamine: (i) RPMI-1640 medium (Euroclone) for HCT-15, A431, MCF-7, BxPC3 and 2008 cells; (ii) F-12 HAM’S (Sigma Chemical Co.) for A549, LoVo and LoVo-OXP cells.
# (§2) The growth inhibitory effect towards 2D tumor cell lines was evaluated by means of MTT assay as previously described. IC50 values were calculated by four parameters logistic (4-PL) model. All the values are the means ± SD of not less than five measurements starting from three different cell cultures.
# (§3) The in vitro antitumor activity of copper(II) complexes 1–3 and the uncoordinated ligands [HC(COOH)(pz^Me2)2], [HC(COOH)(pz)2] and [HC(COOH)(tz)2] was evaluated against a panel of human cancer cell lines derived from solid tumors. Adherent cell lines representative of cervical (A431), pancreatic (BxPC3) colon (HCT-15), breast (MCF-7), lung (A549), and ovarian (2008) cancers, differently sensitive to cisplatin, were exposed to the indicated compounds for 72 h.
# [3] = test system: A431; test: MTT cytotoxicity assay, 2D monolayer; format: cell-based, human; conditions: 72 h, MTT test, cervical carcinoma; read-out: IC50 (µM) ± S.D. A431
# From the text: as §1, §2, §3
# [4] = test system: A549; test: MTT cytotoxicity assay, 2D monolayer; format: cell-based, human; conditions: 72 h, MTT test, lung carcinoma, read-out: IC50 (µM) ± S.D. A549
# From the text: as §1, §2, §3
# [5] = test system: MCF-7; test: MTT cytotoxicity assay, 2D monolayer; format: cell-based, human; conditions: 72 h, MTT test, breast carcinoma, read-out: IC50 (µM) ± S.D. MCF-7
# From the text: as §1, §2, §3
# [6] = test system: BxPC3; test: MTT cytotoxicity assay, 2D monolayer; format: cell-based, human; conditions: 72 h, MTT test, pancreatic carcinoma; read-out: IC50 (µM) ± S.D. BxPC3
# From the text: as §1, §2, §3
# [7] = test system: HCT-15; test: MTT cytotoxicity assay, 2D monolayer; format: cell-based, human; conditions: 72 h, MTT test, colon carcinoma, read-out: IC50 (µM) ± S.D. HCT-15
# From the text: as §1, §2, §3
# [8] = test system: panel of human cancer cell lines derived from solid tumors; test: MTT cytotoxicity, whole panel of human cancer cell lines; format: cell-based; conditions: mean over the cell lines of Table 2, 72 h
# Experimental: as §2, §3
# (§4) HCT-15 colon cancer cells are notoriously poorly chemosensitive to cisplatin. […] As for cisplatin, the clinical effectiveness of OXP is seriously hampered by the cancer cell resistance and, at present, few other drug regimens are available for patients with OXP-refractory colorectal cancers. […] The RF values (calculated by dividing IC50 for resistant cells by those for sensitive ones) were about 10 times lower than that of OXP, excluding the occurrence of cross-resistance phenomena.
# [9] = Stability to air; format: physicochemical; conditions: also as solutions
# [10] = test system: 26S proteasome, chymotrypsin-like (CT-L) activity; test: Proteasome inhibition, chymotrypsin-like (CT-L) activity; format: biochemical; conditions: isolated 26S rabbit proteasomes, 15 μM, 60 min
# Experimental: (§5) The purified rabbit 26S proteasome (Sigma Aldrich) was incubated for 60 min at 37 °C in assay buffer (50 mM Tris-HCl, pH 7.5, 250 mM sucrose, 5 mM MgCl2, 1 mM DTT, and 0.5 mM EDTA), in the presence of 15 µM of 1–3 or 10 µM Lactacystin. Afterwards, fluorogenic peptides were added and substrate hydrolysis was measured after 30 min by monitoring spectrofluorometrically the release of AMC (excitation at 370 nm, emission at 460 nm).
# (§6) The ability of copper complexes to hamper the functioning of each individual proteasome active site, chymotrypsin-like (CT-L), trypsin-like (T-L), and caspase-like (C-L) activities was assessed in isolated 26S rabbit proteasomes after incubation with 15 μM of tested compounds. Lactacystin, an irreversible nonpeptidomimetic proteasome inhibitor, was used as a positive control. […] Conversely, no significant effects were recorded towards the T-L site. Even if the chymotrypsin-like sites are the major drug targets in cancer, it has been recently observed that co-targeting trypsin-like site increased cytotoxicity of copper complexes acting as proteasome inhibitors.
# [11] = test system: LoVo-OXP; test: MTT cytotoxicity assay, cross-resistance profile; format: cell-based, human; conditions: for IC50: 72 h, MTT test, oxaliplatin-resistant colon cancer cells, read-out: IC50 (µM) ± S.D. LoVo-OXP; for RF (resistance factor): RF = IC50 (resistant cells)/IC50 (wild-type cells)
# From the text: as §1, §2, §4
# [12] = test system: LoVo; test: MTT cytotoxicity assay, cross-resistance profile; format: cell-based, human; conditions: 72 h, MTT test, oxaliplatin-sensitive colon cancer cells; read-out: IC50 (µM) ± S.D. LoVo
# From the text: as §1, §2, §4
# [13] = Solubility; format: physicochemical
# [14] = test system: 26S proteasome, caspase-like (C-L) activity; test: Proteasome inhibition, caspase-like (C-L) activity; format: biochemical; conditions: isolated 26S rabbit proteasomes, 15 μM, 60 min
# Experimental: as §5, §6
# [15] = test system: LoVo cells; test: Cellular uptake (intracellular copper by GF-AAS); format: cell-based, human; conditions: 24 h, 2 μM
# Experimental: LoVo cells (2.5 × 10^6) were seeded in 75 cm^2 flasks in growth medium (20 mL). After overnight incubation, the medium was replaced, and the cells were treated with tested compounds for 24 h. Cell monolayers were then processed and mineralized as previously described. The sample was analyzed for copper by using a Varian AA Duo graphite furnace atomic absorption spectrometer (Varian, Palo Alto, CA, USA) at the wavelength of 324 nm. The calibration curve was obtained using known concentrations of standard solutions purchased from Sigma Chemical Co.
# With the purpose of underling a possible correlation between cellular uptake efficiency and cytotoxicity, LoVo cells were treated for 24 h with equimolar concentrations (2 μM) of copper(II) complexes and the intracellular copper amount was quantified by means of Graphite Furnace Atomic Absorption Spectrometry (GF-AAS) analysis. […] In fact, the intracellular copper content detected in LoVo cells follows the same cytotoxicity trend 1 > 2 > 3.
SMILES,IC50 [1],IC50 [2],IC50 [3],IC50 [4],IC50 [5],IC50 [6],IC50 [7],IC50 [11],RF (resistance factor) ([11]; LoVo-OXP/LoVo),IC50 [12],IC50 ([2]; Homo sapiens),"IC50 ([4]; Homo sapiens, A549)","IC50 ([5]; Homo sapiens, MCF7)","IC50 ([7]; Homo sapiens, HCT-15)",other results
"N.N.[Cl][Pt][Cl] [Cisplatin, cisplatin, reference compound]",65.9 ± 3.85 µM,2.2 ± 1 µM,1.7 ± 0.5 µM,7.5 ± 1.2 µM,8.8 ± 1.4 µM,7.3 ± 1.2 µM,15.3 ± 2.2 µM,–,–,–,–,–,–,–,IC50 [8]: 7.1 µM
"O=C(O)C(n1cccn1)n1cccn1.O=C(O)C(n1cccn1)n1cccn1.[Cu+2].[O-][Cl+3]([O-])([O-])[O-].[O-][Cl+3]([O-])([O-])[O-] [compound 2, [HC(COOH)(pz)2]2Cu(ClO4)2]",107.8 ± 1 µM,7.9 ± 1.4 µM,12.7 ± 1.2 µM,5.5 ± 0.2 µM,10.2 ± 2.5 µM,7.5 ± 1.2 µM,9.3 ± 2.7 µM,4.9 ± 0.6 µM,1.2,4 ± 0.5 µM,–,–,–,–,"air stability [9]: air stable even as solutions; IC50 [8]: 8.9 µM; effect on CT-L proteasome activity [10]: able to affect CT-L and C-L activities, even if to a lesser extent than lactacystin; RF times lower than that of OXP ([11]; LoVo-OXP/LoVo): about 10 times; solubility in methanol, DMSO and acetonitrile ([13]; methanol, DMSO, acetonitrile): soluble; solubility in water ([13]; water): soluble; effect on C-L proteasome activity [14]: able to affect CT-L and C-L activities, even if to a lesser extent than lactacystin"
"O=C(O)C(n1cncn1)n1cncn1 [[HC(COOH)(tz)2], bis(1,2,4-triazol-1-yl)acetic acid, reference compound]",–,–,–,–,–,–,–,–,–,–,> 100 µM,> 100 µM,> 100 µM,> 100 µM,–
"O=C1[O][Pt]2([NH][C@@H]3CCCC[C@H]3[NH]2)[O]C1=O [Oxaliplatin, oxaliplatin, reference compound]",–,–,–,–,–,–,–,15.2 ± 2.2 µM,10.9,1.4 ± 0.7 µM,–,–,–,–,–
"O=C(O)C(n1cccn1)n1cccn1 [[HC(COOH)(pz)2], bis(pyrazol-1-yl)acetic acid, reference compound]",–,–,–,–,–,–,–,–,–,–,> 100 µM,> 100 µM,> 100 µM,> 100 µM,–
"CO.O=C(O)C(n1cncn1)n1cncn1.O=C(O)C(n1cncn1)n1cncn1.[Cu+2].[O-][Cl+3]([O-])([O-])[O-].[O-][Cl+3]([O-])([O-])[O-] [compound 3, [HC(COOH)(tz)2]2Cu(ClO4)2·CH3OH]",> 100 µM,69.3 ± 4.7 µM,15.9 ± 5.8 µM,24.5 ± 1.9 µM,39.6 ± 4.6 µM,18.5 ± 4.4 µM,59.5 ± 2.7 µM,32.5 ± 1 µM,2.1,15.3 ± 1 µM,–,–,–,–,"air stability [9]: air stable even as solutions; cellular uptake efficiency (intracellular copper amount) [15]: lowest cellular uptake efficiency; effect on CT-L proteasome activity [10]: able to affect CT-L and C-L activities, even if to a lesser extent than lactacystin; solubility in DMSO ([13]; DMSO): soluble; effect on C-L proteasome activity [14]: able to affect CT-L and C-L activities, even if to a lesser extent than lactacystin"
"Cc1cc(C)n(C(C(=O)O)n2nc(C)cc2C)n1 [[HC(COOH)(pz^Me2)2], bis(3,5-dimethylpyrazol-1-yl)acetic acid, reference compound]",–,–,–,–,–,–,–,–,–,–,> 100 µM,> 100 µM,> 100 µM,> 100 µM,–
